How the values were obtained:
Test in all cases: drug sensitivity score (DSS2, normalised partial AUC of dose-response, 72 h CellTiter-Glo viability) (DSS (dimensionless)); higher = more sensitive (stronger growth inhibition / cytotoxicity); extreme values may be limits of the assay
[1] = system: CAF#5 (primary prostate cancer-associated fibroblasts of myCAF-like type)
Outline: (§1)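 The drug sensitivity score reported here is a partial area under the fitted logistic dose–response curve, divided by the log of the curve's upper asymptote and computed in BREEZE; higher values denote greater sensitivity. Low-passage primary prostate cancer-associated fibroblasts, PF179T, WPMY-1, LNCaP and 22Rv1 cells were seeded into 384-well plates preloaded with compounds at five doses across a 10,000-fold range. CellTiter-Glo 2.0 luminescence gave viability at 72 h, scaled to vehicle and positive-control wells.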

[2] = system: LNCAP
Outline: as §1

[3] = system: PF179T
Outline: as §1

[4] = system: CAF#4 (primary prostate cancer-associated fibroblasts of iCAF-like type)
Outline: as §1

[5] = system: CAF#7 (primary prostate cancer-associated fibroblasts of myCAF-like type)
Outline: as §1

[6] = system: WPMY-1
Outline: as §1

[7] = system: CAF#1 (primary prostate cancer-associated fibroblasts of myCAF-like type)
Outline: as §1

[8] = system: CAF#6 (primary prostate cancer-associated fibroblasts of iCAF-like type)
Outline: as §1

[9] = system: 22Rv1
Outline: as §1

[10] = system: CAF#3 (primary prostate cancer-associated fibroblasts of myCAF-like type)
Outline: as §1

[11] = system: CAF#2 (primary prostate cancer-associated fibroblasts of iCAF-like type)
Outline: as §1

Row | SMILES | drug sensitivity score [1] | drug sensitivity score [2] | drug sensitivity score [3] | drug sensitivity score [4] | drug sensitivity score [5] | drug sensitivity score [6] | drug sensitivity score [7] | drug sensitivity score [8] | drug sensitivity score [9] | drug sensitivity score [10] | drug sensitivity score [11]
1 | C[C@@H]1CCN(C(=O)CC#N)C[C@@H]1N(C)c1ncnc2[nH]ccc12 [Tofacitinib] (tested concentration range 0.5-5000 nM) | 0.4 | 0 | 0 | 0 | 0.1 | 0 | 1.3 | 0 | 0 | 1.6 | 1
2 | CC[C@@]1(O)C(=O)OCc2c1cc1n(c2=O)Cc2cc3c(CN(C)C)c(O)ccc3nc2-1 [Topotecan] (tested concentration range 1-10000 nM) | 6.9 | 22.7 | 8.7 | 8.1 | 5.3 | 14.6 | 8.9 | 4.8 | 24.5 | 4.8 | 10.3
3 | CC(C)C[C@@H](C(=O)N[C@H](C(=O)OC1CCCC1)c1ccccc1)[C@H](O)C(=O)NO [Tosedostat] (tested concentration range 1-10000 nM) | 3.5 | 8.6 | 1.2 | 0 | 5.1 | 9.3 | 0 | 2.7 | 4.4 | 1 | 0.6
4 | Cc1cc(Nc2cc(N3CCN(C)CC3)nc(Sc3ccc(NC(=O)C4CC4)cc3)n2)n[nH]1 [Tozasertib] (tested concentration range 1-10000 nM) | 3.5 | 7 | 8.2 | 3.2 | 4.7 | 14.5 | 3.2 | 3 | 5.5 | 4.9 | 8.4
5 | CC(=O)Nc1cccc(-n2c(=O)n(C3CC3)c(=O)c3c(Nc4ccc(I)cc4F)n(C)c(=O)c(C)c32)c1 [Trametinib] (tested concentration range 0-250 nM) | 2.7 | 0 | 1.8 | 1.3 | 4.2 | 5.5 | 3 | 1.7 | 11.8 | 0 | 5.5
6 | CC1=C(/C=C/C(C)=C/C=C/C(C)=C/C(=O)O)C(C)(C)CCC1 [Tretinoin] (tested concentration range 1-10000 nM) | 1.7 | 0 | 8.2 | 0 | 5 | 0 | 1.4 | 2.7 | 0 | 0.2 | 5
7 | NC(=S)N/N=C/c1ncccc1N [Triapine] (tested concentration range 1-10000 nM) | 1.3 | 3.2 | 2.2 | 0 | 0.8 | 4.9 | 0 | 1 | 4 | 0.6 | 3.3
8 | O=c1[nH]c(=O)n([C@H]2C[C@H](O)[C@@H](CO)O2)cc1C(F)(F)F [Trifluridine] (tested concentration range 1-10000 nM) | 0 | 4 | 0.1 | 0 | 0 | 4.7 | 0 | 0 | 5 | 0 | 1
9 | O=C(CCCCCCC(=O)Nc1ccc([C@H]2O[C@@H](CSc3nc(-c4ccccc4)c(-c4ccccc4)o3)C[C@@H](c3ccc(CO)cc3)O2)cc1)NO [Tubacin] (tested concentration range 1-10000 nM) | 2.3 | 7 | 3.4 | 1.4 | 3.3 | 5.3 | 2 | 1.1 | 5.6 | 0 | 2.4
10 | CN1CCc2c(c3ccccc3n2Cc2ccc(C(=O)NO)cc2)C1 [Tubastatin A] (tested concentration range 1-10000 nM) | 0 | 1.4 | 0 | 2.8 | 0 | 5.9 | 0 | 0 | 2.3 | 0.6 | 0.2
11 | Cc1cc(Nc2ncnc3ccc(NC4=NC(C)(C)CO4)cc23)ccc1Oc1ccn2ncnc2c1 [Tucatinib] (tested concentration range 0.2-2500 nM) | 0 | 0.6 | 0.1 | 0 | 0 | 0 | 0.4 | 0.1 | 0 | 0 | 0
12 | Nc1cc(F)ccc1NC(=O)c1ccc(CNC(=O)/C=C/c2cccnc2)cc1 [Tucidinostat] (tested concentration range 1-10000 nM) | 10.1 | 10.6 | 8.9 | 5.7 | 3.9 | 7.6 | 2.4 | 3.2 | 9.6 | 2.9 | 6
13 | COC(=O)c1ccc2c(c1)[nH]c1ncnc(NCCCN3CCCCC3)c12 [UM729] (tested concentration range 1-10000 nM) | 1.6 | 3.3 | 0.1 | 0 | 0.2 | 3.9 | 0 | 0 | 3.6 | 0.3 | 0
14 | COc1cc2c(NC3CCN(C(C)C)CC3)nc(C3CCCCC3)nc2cc1OCCCN1CCCC1 [UNC0638] (tested concentration range 1-10000 nM) | 0 | 6 | 5.2 | 0 | 6.6 | 6.1 | 0 | 6.5 | 7.2 | 7.7 | 0
15 | COc1cc2c(NC3CCN(C(C)C)CC3)nc(N3CCC(F)(F)CC3)nc2cc1OCCCN1CCCC1 [UNC0642] (tested concentration range 1-10000 nM) | 0 | 4.5 | 0 | 0 | 1.9 | 4.8 | 0 | 0.7 | 5.8 | 0 | 0
16 | O=C(c1ccc(C(=O)N2CCC(N3CCCC3)CC2)c(Nc2ccccc2)c1)N1CCC(N2CCCC2)CC1 [UNC1215] (tested concentration range 1-10000 nM) | 0 | 0 | 0 | 0 | 0 | 0 | 0 | 0 | 0 | 0 | 0
17 | CCCCNc1ncc(C(=O)NCc2ccc(-n3ccnc3)cc2)c(NC2CCC(O)CC2)n1 (stereo unspecified) [UNC2881] (tested concentration range 0.2-2500 nM) | 0.1 | 1.5 | 0 | 0.7 | 4.8 | 0 | 0.7 | 2 | 0 | 2.6 | 0.1
18 | CC(C)Nc1cc(-c2c[nH]c(C(=O)N[C@H](CO)c3cccc(Cl)c3)c2)c(Cl)cn1 [Ulixertinib] (tested concentration range 1-10000 nM) | 0.3 | 6.1 | 1.9 | 1.2 | 4.3 | 5.7 | 0.2 | 2 | 9.6 | 0 | 2.2
19 | CC(C)Oc1ccc(-c2nn([C@@H](C)c3oc4ccc(F)cc4c(=O)c3-c3cccc(F)c3)c3ncnc(N)c23)cc1F [Umbralisib] (tested concentration range 0.2-2500 nM) | 0 | 3.4 | 0 | 0 | 0 | 0 | 1.1 | 0 | 0 | 2.4 | 0.9
20 | CC[C@@H]1CN(C(=O)NCC(F)(F)F)C[C@@H]1c1cnc2cnc3[nH]ccc3n12 [Upadacitinib] (tested concentration range 1-10000 nM) | 0.8 | 0 | 0 | 0.1 | 0 | 0.5 | 0 | 0 | 0 | 0 | 1.3
21 | C=CC(=O)N1CC/C(=C\c2ccc(F)c([N+](=O)[O-])c2)C(=O)/C(=C/c2ccc(F)c([N+](=O)[O-])c2)C1 [VLX1570] (tested concentration range 1-10000 nM) | 25.1 | 21.4 | 22.2 | 28 | 19.5 | 29.3 | 26.9 | 17.5 | 26.9 | 17.3 | 29.7
22 | CNC(=O)c1ccccc1Nc1cc(Nc2ccc(N3CCOCC3)cc2OC)ncc1C(F)(F)F [VS-4718] (tested concentration range 1-10000 nM) | 13.1 | 4.5 | 7.5 | 7.3 | 12.4 | 6.8 | 12.9 | 8.9 | 7.9 | 8.1 | 11.9
23 | CCCC(CCC)C(=O)O [Valproic acid] (tested concentration range 100-1000000 nM) | 0 | 0 | 0 | 0 | 0 | 0 | 0 | 0 | 0 | 1.2 | 0
24 | CCCCC(=O)OCC(=O)[C@]1(O)Cc2c(O)c3c(c(O)c2[C@@H](O[C@H]2C[C@H](NC(=O)C(F)(F)F)[C@H](O)[C@H](C)O2)C1)C(=O)c1c(OC)cccc1C3=O [Valrubicin] (tested concentration range 0.5-5000 nM) | 8.4 | 20.6 | 9.6 | 4.9 | 11.4 | 14.9 | 8.6 | 9.4 | 14.3 | 8.7 | 9.3
25 | COc1cc2/c(=N/c3ccc(Br)cc3F)nc[nH]c2cc1OCC1CCN(C)CC1 [Vandetanib] (tested concentration range 0.1-1000 nM) | 4.4 | 0 | 0 | 4.6 | 0.2 | 0.4 | 5.1 | 0.1 | 0 | 2.4 | 6.4
26 | CCc1c(C(=O)C(N)=O)c2c(OCC(=O)O)cccc2n1Cc1ccccc1 [Varespladib] (tested concentration range 1-10000 nM) | 1.3 | 0 | 0 | 0 | 0 | 0 | 0 | 0 | 0 | 0 | 0

From the supplement of paper PMC12592484
